From patent US6342247B1, “Pharmaceutical compositions containing irbesartan” (Sanofi-Synthelabo, priority 1995, dated 2002)

Experiment: Stability of tablets / hydrochlorothiazide degradation depending on excipients
Assay type: physicochemical
Excerpt: Under certain conditions, hydrochlorothiazide can hydrolyze to form, as by-product products, a free amine degradant and formaldehyde (D.S. Desai et al., International Journal of Phaxmaceutics, 107(2), 141-47 (1994)). The selection of excipients can impact the stability of hydrochlorothiazide. […] The aforementioned preferred compositions of the present invention containing irbesartan and hydrochlorothiazide are thus further advantageous since the excipients employed therein minimize or eliminate hydrochlorothiazide degradation.

## NS(=O)(=O)c1cc2c(cc1Cl)NCNS2(=O)=O [hydrochlorothiazide]
Poloxamer in the composition
  degradation of hydrochlorothiazide: increase the degradation
Povidone as binder
  stability of hydrochlorothiazide: formation of quantities of the free amine degradant
Pregelatinized starch as binder, compared with povidone
  stability of hydrochlorothiazide: greater stability
